Tests used:
[1] = Toxicity Evaluation (38-day medicated diet, liver necrosis and urate crystal deposition); type: in vivo, male broiler chickens; conditions: 125 ppm in diet; for chickens with urate crystal deposition in the kidneys: affected/examined
Procedure: (§1) Compound of the present invention and 2-(4-fluorophenyl)-5-(N-methylpiperidin-4-yl)-3-(4-pyridyl)pyrrole were evaluated in anticoccidiosis assay and toxicology studies. In these studies, medicated diets were prepared by dissolving the proper quantity of the test compound in dimethylsulfoxide or acetone, mixing the resultant solution into a few grams of the basal diet, and then placing the mixture under a fume hood for dehydration. The dry mixture is made into a uniform premix with an electric grinder, and then blended with the desired quantity of basal diet for the final formulation in a commercial bowl mixer.
Day-old male broiler chickens are received on Day 0 of the trial, weighed, wingbanded, and placed on medicated or control diet in standard battery cages. Three treatments are used in the study: (A) medicated diet containing 125 ppm of 2-(4-fluorophenyl)-5-(N-methylpiperidin-4-yl)-3-(4-pyridyl)pyrrole; (B) medicated diet containing 125 ppm of 2-(4-fluorophenyl)-5-(N-ethylpiperidin-4-yl)-3-(4-pyridyl)pyrrole; and (C) no medication. A total of 48 chickens are utilized per treatment. Of these, 12 birds (2 replicates of 6) are examined on D7, D14, D24 and D38 for liver necrosis and urate crystal deposition. Growth rates, feed efficiency and plasma levels are determined for background information. The trial is terminated on D38.

[2] = Acute Toxicity Evaluation (intraperitoneal, twice a day for three days); type: in vivo; conditions: 100 mg/kg/day intraperitoneally, necropsy on day 4, two chickens per group
Procedure: For acute toxicity evaluation, chickens are dosed intraperitoneally twice a day at desired dose for three days. On day 4 birds are necropsied and examined for gross lesions and weight suppression. Two chickens are used in each treatment group.

[3] = system: Eimeria acervulina, E. tenella; test: Anticoccidiosis assay (oocyst production in infected chickens on medicated diet); type: in vivo, White Leghorn chickens; parameters: key: at least 80% reduction in oocyst production are considered active; those with 50-79% are considered partially active; those with <50% are considered inactive; conditions: 100 ppm in diet; chickens infected with E. acervulina or E. tenella
Procedure: as §1
One-day-old White Leghorn chickens are obtained from a commercial hatchery and acclimated in a holding room. At three days of age the test animals are selected by weight, wingbanded, and randomly placed on medicated or control diets for the duration of the experiment. One or two replicates of two birds are utilized per treatment. Following 24 h premedication, in each replicate one bird is infected with Eimeria acervulina, the other bird is infected with E. tenella. Both strains of Eimeria are sensitive to all anticoccidial products, and have been maintained in laboratory conditions for over 25 years. […] The measured parameters are weight gain, feed consumption and oocyst production. E. tenella lesion scores are also recorded for background information. […]

## CCN1CCC(c2cc(-c3ccncc3)c(-c3ccc(F)cc3)[nH]2)CC1 [2-(4-fluorophenyl)-5-(N-ethylpiperidin-4-yl)-3-(4-pyridyl)pyrrole]
[1]; 12 birds examined on each of D7, D14, D24 and D38
  chickens showing liver necrosis or urate crystal deposition: None
[2]
  liver necrosis / gross liver lesions at necropsy: none
[3]
  anticoccidial activity (reduction in oocyst production): active

## CN1CCC(c2cc(-c3ccncc3)c(-c3ccc(F)cc3)[nH]2)CC1 [2-(4-fluorophenyl)-5-(N-methylpiperidin-4-yl)-3-(4-pyridyl)pyrrole]
[1]; examined on D14
  chickens with urate crystal deposition in the kidneys: 3/12
[1]; examined on D38
  chickens with urate crystal deposition in the kidneys: 4/12
[2]
  liver necrosis / gross liver lesions at necropsy: demonstrated gross liver lesions
[3]
  anticoccidial activity (reduction in oocyst production): active

Reference: US6384052B1, “Anticoccidial compounds” (Merck & Co., Inc., priority 1999, dated 2002)
